In general, melting point refers to the temperature of the solid-liquid transition.

For eight compounds, melting point results are on record in patent US7569568B2, “Cytokine inhibitors” (Boehringer Ingelheim Pharmaceuticals, Inc., priority 2002, dated 2009).

Some results are limits rather than exact numbers.

The compound `COC(=O)c1cn(-c2cc(C(=O)Nc3cc(C(C)(C)C)cc(NS(C)(=O)=O)c3OC)ccc2C)nn1` [Example 1, 1-[5-(5-tert-butyl-3-methanesulfonylamino-2-methoxy-phenylcarbamoyl)-2-methyl-phenyl]-1H-1,2,3-triazole-4-carboxylic acid methyl ester] displayed a melting point of 198 °C. The result for `COC(=O)c1cn(-c2cc(C(=O)Nc3cc(C(C)(C)C)cc(NS(C)(=O)=O)c3OC)ccc2Cl)nn1` [Example 8, 1-[5-(5-tert-butyl-3-methanesulfonylamino-2-methoxyphenyl-carbamoyl)-2-chloro-phenyl]-1H-1,2,3-triazole-4-carboxylic acid methyl ester] reads 251 to 252 °C (dec.); that for `COC(=O)c1nnn(-c2cc(C(=O)Nc3cc(C(C)(C)C)cc(NS(C)(=O)=O)c3OC)ccc2C)c1N` [Example 9, 5-amino-1-[5-(5-tert-butyl-3-methanesulfonylamino-2-methoxy-phenylcarbamoyl)-2-methyl-phenyl]-1H-1,2,3-triazole-4-carboxylic acid methyl ester], 204 to 205 °C. For the compound `COC(=O)c1cn(-c2cc(C(=O)Nc3cc(C(C)(C)C)cc(NS(C)(=O)=O)c3OC)cc(C)c2C)nn1` [Example 16, 1-[5-(5-tert-butyl-3-methanesulfonylamino-2-methoxy-phenylcarbamoyl)-2,3-dimethyl-phenyl]-1H-1,2,3-triazole-4-carboxylic acid methyl ester], the melting point is 199 °C.

The compound `COc1c(NC(=O)c2ccc(C)c(-n3cc(C(=O)NCc4ccccc4)nn3)c2)cc(C(C)(C)C)cc1NS(C)(=O)=O` [Example 24, 1-[5-(5-tert-butyl-3-methanesulfonylamino-2-methoxy-phenylcarbamoyl)-2-methyl-phenyl]-1H-1,2,3-triazole-4-carboxylic acid benzylamide] registered a melting point of 205 to 207 °C.

Turning to `COc1c(NC(=O)c2cc(C)c(C)c(-n3cc(C(=O)NCCN4CCOCC4)nn3)c2)cc(C(C)(C)C)cc1NS(C)(=O)=O` [Example 28, 1-[5-(5-tert-butyl-3-methanesulfonylamino-2-methoxy-phenylcarbamoyl)-2,3-dimethyl-phenyl]-1H-1,2,3-triazole-4-carboxylic acid (2-morpholin-4-yl-ethyl)-amide], the melting point was 206 to 209 °C (dec.). Consider `COc1c(NC(=O)c2ccc(C)c(-n3cc(C(N)=O)nn3)c2)cc(C(C)(C)C)cc1NS(C)(=O)=O` [Example 66, 1-[5-(5-tert-butyl-3-methanesulfonylamino-2-methoxyphenyl-carbamoyl)-2-methyl-phenyl]-1H-1,2,3-triazole-4-carboxylic acid amide], for which the melting point was > 250 °C. In the case of `COc1c(NC(=O)c2ccc(C)c(-n3nnc(C(=O)NCC(C)(C)C)c3N)c2)cc(C(C)(C)C)cc1NS(C)(=O)=O` [Example 68, 5-amino-1-[5-(5-tert-butyl-3-methanesulfonylamino-2-methoxy-phenylcarbamoyl)-2-methyl-phenyl]-1H-1,2,3-triazole-4-carboxylic acid (2,2-dimethyl-propyl)-amide] it was 189 to 193 °C.
